In PubChem BioAssay (NCI):
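Test compounds were applied to cells in 96-well plates for 48 hours at 5 doses. TGI marks complete inhibition of growth.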

Columns and labels:
Assay in all cases: growth of human tumour cells (NCI), 48 h
HOP-92 NSCLC = test system: HOP-92 NSCLC
OVCAR-3 ovarian = test system: OVCAR-3 ovarian
SW-620 colon = test system: SW-620 colon
SF-268 CNS = test system: SF-268 CNS
TK-10 renal = test system: TK-10 renal
M19-MEL melanoma = test system: M19-MEL melanoma
LOX IMVI melanoma = test system: LOX IMVI melanoma
SF-295 CNS = test system: SF-295 CNS
RPMI-8226 leukemia = test system: RPMI-8226 leukemia
SNB-78 CNS = test system: SNB-78 CNS
NCI-H226 lung = test system: NCI-H226 lung
K-562 leukemia = test system: K-562 leukemia
SK-OV-3 ovarian = test system: SK-OV-3 ovarian
RXF-631 renal = test system: RXF-631 renal
786-0 renal = test system: 786-0 renal
HT29 colon = test system: HT29 colon
KM20L2 colon = test system: KM20L2 colon
HOP-62 NSCLC = test system: HOP-62 NSCLC
SK-MEL-2 melanoma = test system: SK-MEL-2 melanoma
HCC-2998 colon = test system: HCC-2998 colon
SK-MEL-5 melanoma = test system: SK-MEL-5 melanoma
SN12C renal = test system: SN12C renal
CCRF-CEM leukemia = test system: CCRF-CEM leukemia
SR leukemia = test system: SR leukemia
UO-31 renal = test system: UO-31 renal
OVCAR-5 ovarian = test system: OVCAR-5 ovarian
EKVX NSCLC = test system: EKVX NSCLC
UACC-62 melanoma = test system: UACC-62 melanoma
HOP-18 NSCLC = test system: HOP-18 NSCLC
MOLT-4 leukemia = test system: MOLT-4 leukemia
SK-MEL-28 melanoma = test system: SK-MEL-28 melanoma
ACHN renal = test system: ACHN renal
HL-60(TB) leukemia = test system: HL-60(TB) leukemia
RXF 393 renal = test system: RXF 393 renal
U251 CNS = test system: U251 CNS
COLO 205 colon = test system: COLO 205 colon
SNB-19 CNS = test system: SNB-19 CNS
XF 498 CNS = test system: XF 498 CNS
DLD-1 colon = test system: DLD-1 colon
M14 melanoma = test system: M14 melanoma
A549 NSCLC = test system: A549 NSCLC
IGROV1 ovarian = test system: IGROV1 ovarian
DMS 273 small cell lung = test system: DMS 273 small cell lung
HCT-116 colon = test system: HCT-116 colon
NCI-H460 lung = test system: NCI-H460 lung
DMS 114 small cell lung = test system: DMS 114 small cell lung
KM12 colon = test system: KM12 colon
CAKI-1 renal = test system: CAKI-1 renal
NCI-H23 lung = test system: NCI-H23 lung
MALME-3M melanoma = test system: MALME-3M melanoma
HCT-15 colon = test system: HCT-15 colon
UACC-257 melanoma = test system: UACC-257 melanoma
SNB-75 CNS = test system: SNB-75 CNS
NCI-H522 lung = test system: NCI-H522 lung
OVCAR-8 ovarian = test system: OVCAR-8 ovarian
A498 renal = test system: A498 renal

Measured: TGI

CCCCNC(=O)NNC(=O)c1cc(/C=C/c2cccc([N+](=O)[O-])c2)ncn1
44.8 µM: U251 CNS
> 100 µM: HOP-92 NSCLC | OVCAR-3 ovarian | SF-268 CNS | TK-10 renal | M19-MEL melanoma | LOX IMVI melanoma | SF-295 CNS | SNB-78 CNS | NCI-H226 lung | K-562 leukemia | SK-OV-3 ovarian | RXF-631 renal | 786-0 renal | HT29 colon | KM20L2 colon | HOP-62 NSCLC | SK-MEL-2 melanoma | HCC-2998 colon | SK-MEL-5 melanoma | SN12C renal | CCRF-CEM leukemia | SR leukemia | UO-31 renal | OVCAR-5 ovarian | EKVX NSCLC | UACC-62 melanoma | HOP-18 NSCLC | MOLT-4 leukemia | SK-MEL-28 melanoma | ACHN renal | HL-60(TB) leukemia | RXF 393 renal | COLO 205 colon | SNB-19 CNS | XF 498 CNS | DLD-1 colon | M14 melanoma | A549 NSCLC | IGROV1 ovarian | DMS 273 small cell lung | HCT-116 colon | NCI-H460 lung | DMS 114 small cell lung | KM12 colon | CAKI-1 renal | NCI-H23 lung | MALME-3M melanoma | HCT-15 colon | UACC-257 melanoma | SNB-75 CNS | NCI-H522 lung | OVCAR-8 ovarian | A498 renal
59.8 µM: RPMI-8226 leukemia
33.7 µM: SW-620 colon
